# Experimental data reported in patent publication US8895695B2, “Template-fixed beta-hairpin peptidomimetics with CXCR4 antagonizing activity” (priority 2003, dated 2014).
# Numbered stars: 1 amine (or outer) side, 2 acyl side, 3 side chain; on linkers, the order of the positions; unused ones are H or OH. Bridge positions count the residues as written; N and C are the ends. Square brackets hold non-standard residues; d marks the D form. Peptide text beside a SMILES is read from it. X1 = CC(C)CN(CCC[C@H](N[*:1])C(=O)[*:2])CC(C)C; 2Nal = N[C@@H](Cc1ccc2ccccc2c1)C(=O)O; Cit = NC(=O)NCCC[C@H](N)C(=O)O; Dab = NCC[C@H](N)C(=O)O
# Experiments:
# [1] = test system: human red blood cells (hRBC); assay: Hemolysis; type: cell-based
# Method in brief: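 Washed fresh human erythrocytes (20% v/v, about 0.9×10^9 cells/ml final) incubated with peptide at 100 μM for 1 h at 37° C. Supernatant diluted 20-fold and OD540 read. Percent hemolysis relative to 0.1% Triton X-100 in H2O (100%), with PBS alone as 0%.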
# in vitro [2] = conditions: human; for CC50 at 48 h: HELA cells (Acc57)
# CXCR4 [3] = biological target: T1, CXCR4 (Homo sapiens, UniProt P61073); assay: Ca2+-assay method 1: CXCR4-antagonizing activity; type: cell-based; design: expressed in transfected cells; conditions: method 1 (Ex. 1-53), CXCR4 transfected pre-B cells, Fura-2; read-out: IC50 (nM) Ca^2+ assay
# T1 sequence (P61073 whole entry): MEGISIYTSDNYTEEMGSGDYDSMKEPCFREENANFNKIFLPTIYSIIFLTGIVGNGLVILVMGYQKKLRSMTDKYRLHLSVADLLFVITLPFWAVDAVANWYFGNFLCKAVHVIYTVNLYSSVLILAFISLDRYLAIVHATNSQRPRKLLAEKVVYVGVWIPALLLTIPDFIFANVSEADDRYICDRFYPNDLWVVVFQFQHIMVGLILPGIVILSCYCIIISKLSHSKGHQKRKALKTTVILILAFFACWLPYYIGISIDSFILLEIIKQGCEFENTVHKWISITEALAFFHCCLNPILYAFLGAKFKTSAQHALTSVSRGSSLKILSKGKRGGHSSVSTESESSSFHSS
# Procedure: 2.2. Ca^2+-Assay: CXCR4-Antagonizing Activity of the Peptides.
# The cells were washed free from Fura-2-AM with a platelet centrifuge and resuspended in 800 μl MSB containing 5 mM D-Glucose. The peptides to be administered were diluted to a 100 fold end concentration in MSB/0.2% PPL, and 8 μl were injected. […] Measurements were done under continuous stirring at 37° C. The signal intension was calibrated with 3 mM CaCl2/[…] lonomycin (maximal fura-2-acetoxymethylester saturation) and 10 μM MnCl2 (minimal Fura-2-acetoxymethylester saturation) and [Ca^2+]i-changes are presented in % fora-2-acetoxymethylester saturation. The rate of [Ca^2+]i-changes was calculated on the basis of the initial [Ca^2+]i-changes and plotted in dependence of chemokine concentration to obtain a sigmoidal curve and to determine the IC50 values.
# Osmolarity: 310 mOsm adjusted with NaOH or HCl, adjusted with H2O or PBS.
# MSB plus: 5 mM D-glucose in MSB (50 mg/50 mL).
# Fura 2-acetoxymethylester: 1 mM stock solution in dimethylsulfoxide.
# in vitro [4] = type: in vitro ADME; conditions: plasma
# Procedure: 405 μl of plasma/albumin solution were placed in a polypropylene (PP) tube and spiked with 45 μl of compound from a 100 μM solution B, derived from 135 μl of PBS and 15 μl of 1 mM peptide in PBS, pH 7.4. 150 μl aliquots were transferred into individual wells of the 10 kDa filter plate (Millipore MAPPB 1010 Biomax membrane). For “0 minutes controls”: 270 μl of PBS were placed in a PP tube and 30 μl of stock solution B was added and vortexed. 150 μl of control solution was placed into one well of the filter plate and serves as “filtered control”.
# Further 150 μl of control solution were placed directly into a receiver well (reserved for filtrate) and serve as “not-filtered control”. The entire plate including evaporation lid was incubated for 60 min at 37° C. Plasma samples (rat plasma: Harlan Sera lab UK, human plasma: Blutspendezentrum Zürich) were centrifuged at least for 2 h at 4300 rpm (3500 g) and 15° C. in order to yield 100 μl filtrate. For “serum albumin”-samples (freshly prepared human albumin: Sigma A-4327, rat albumin: Sigma A-6272, all at 40 mg/ml concentration in PBS) approximately 1 hour of centrifugation is sufficient. The filtrates in the receiver PP plate were analysed by LC/MS as followes: Column: Jupiter C18 (Phenomenex), mobile phases: (A) 0.1% formic acid in water and (B) acetonitrile, gradient: 5%-100% (B) in 2 minutes, electrospray ionization, MRM detection (triple quadrupole). The peak areas were determined and triplicate values are averaged. The binding is expressed in percent of the (filtered and not-filtered time point 0 min) control 1 and 2 by: 100−(100*T60/T0). The average from these values is then calculated (see ref. 9 below).
# CXCR4 [5] = biological target: T1, CXCR4; assay: Ca2+-assay method 2 (Flexstation, SDF-1 induced calcium mobilization); type: cell-based; design: expressed in transfected cells; host or cells: mouse pre-B cell line 300-19; conditions: method 2 (Ex. 54-160), mouse pre-B cell line 300-19 with human CXCR4, 10 nM SDF-1; read-out: IC50 (nM) Ca^2+ assay
# 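Throughout, for CC50: MTT reduction read as absorbance at 595 nm, blank-corrected and expressed as percent growth relative to the time-zero cell reading, triplicate wells per concentration.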
# 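Throughout, for GI50: MTT reduction read as absorbance at 595 nm, blank-corrected and expressed as percent growth relative to the time-zero cell reading, triplicate wells per concentration.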
Compound,Hemolysis at 100 μM [1] [%],CC50 at 48 h (in vitro [2]) [µM],IC50 (CXCR4 [3]) [nM],half-life at 10 μM (in vitro [4]; human) [h],half-life at 10 μM (in vitro [4]; rat) [h],GI50 at 48 h (in vitro [2]) [µM],IC50 (CXCR4 [5]) [nM]
CC(C)[C@@H]1NC(=O)[C@H](CCCNC(N)=O)NC(=O)[C@H](CCCNC(=N)N)NC(=O)[C@H](Cc2ccc(O)cc2)NC(=O)[C@@H]2CCCN2C(=O)[C@H]2CCCN2C(=O)[C@H](CCCCN)NC(=O)[C@H](CCCNC(N)=O)NC(=O)[C@H](Cc2ccc(O)cc2)NC(=O)[C@H](Cc2ccccc2)NC(=O)[C@H](Cc2ccc3ccccc3c2)NC(=O)[C@H](CCCNC(=N)N)NC(=O)[C@@H](CCCNC(=N)N)NC(=O)[C@H](CCCNC(=N)N)NC1=O [Ex. 1] (cyclo(YR[Cit]VR[dR]R[2Nal]FY[Cit]K[dP]P)),1.6,82,2280,–,–,–,–
CC(C)[C@@H]1NC(=O)[C@H](CCCNC(N)=O)NC(=O)[C@H](CCCNC(=N)N)NC(=O)[C@H](Cc2ccc(O)cc2)NC(=O)[C@@H]2CCCN2C(=O)[C@H]2CCCN2C(=O)[C@H](CCCCN)NC(=O)[C@H](CCCNC(N)=O)NC(=O)[C@H](Cc2ccc(O)cc2)NC(=O)[C@H](C(C)C)NC(=O)[C@H](Cc2ccc3ccccc3c2)NC(=O)[C@H](CCCNC(=N)N)NC(=O)[C@H](CCCNC(=N)N)NC(=O)[C@H](CCCNC(=N)N)NC1=O [Ex. 6] (cyclo(YR[Cit]VRRR[2Nal]VY[Cit]K[dP]P)),0.6,103,1930,–,–,–,–
C[C@@H](O)[C@@H]1NC(=O)[C@H](CCCNC(=N)N)NC(=O)[C@H](Cc2ccc(O)cc2)NC(=O)[C@@H]2CCCN2C(=O)[C@H]2CCCN2C(=O)[C@H](CCCCN)NC(=O)[C@H](CCC(N)=O)NC(=O)[C@H](Cc2ccc(O)cc2)NC(=O)[C@@H]2CSSC[C@H](NC1=O)C(=O)N[C@@H](CCCNC(=N)N)C(=O)NCC(=O)N1CCC[C@@H]1C(=O)N[C@@H](CCN)C(=O)N[C@@H](CCCNC(=N)N)C(=O)N[C@@H](Cc1c[nH]c3ccccc13)C(=O)N2 [Ex. 110] (cyclo(YRTCRG[dP][Dab]RWCYQK[dP]P); disulfide 4-11),0,–,–,1.92,4.32,48,1.7
CC(C)CN(CCC[C@@H]1NC(=O)[C@H]2CCCN2C(=O)CNC(=O)[C@H](CCCNC(=N)N)NC(=O)[C@@H]2CSSC[C@H](NC(=O)[C@H](Cc3ccc4ccccc4c3)NC(=O)[C@H](CCCNC(=N)N)NC1=O)C(=O)N[C@@H](Cc1ccc(O)cc1)C(=O)N[C@@H](CCCNC(N)=O)C(=O)N[C@@H](CCCCN)C(=O)N1CCC[C@@H]1C(=O)N1CCC[C@H]1C(=O)N[C@@H](Cc1ccc(O)cc1)C(=O)N[C@@H](CCCNC(=N)N)C(=O)N[C@@H](CCCNC(N)=O)C(=O)N2)CC(C)C [Ex. 124] (cyclo(YR[Cit]CRG[dP][X1]R[2Nal]CY[Cit]K[dP]P); disulfide 4-11),0,–,–,> 5,> 5,21,5.9
N=C(N)NCCC[C@@H]1NC(=O)[C@H](CO)NC(=O)[C@H](CCCNC(N)=O)NC(=O)[C@H](CCCNC(=N)N)NC(=O)[C@H](Cc2ccc(O)cc2)NC(=O)[C@@H]2CCCN2C(=O)[C@H]2CCCN2C(=O)[C@H](CCCCN)NC(=O)[C@H](CCCNC(N)=O)NC(=O)[C@H](Cc2ccc(O)cc2)NC(=O)[C@H](CC(N)=O)NC(=O)[C@H](Cc2c[nH]c3ccccc23)NC(=O)[C@H](CCCNC(=N)N)NC(=O)[C@H](CCCNC(=N)N)NC(=O)[C@H]2CCCN2C(=O)CNC1=O [Ex. 151] (cyclo(YR[Cit]SRG[dP]RRWNY[Cit]K[dP]P)),0.9,–,–,1.48,1.18,83,4.2
N=C(N)NCCC[C@@H]1NC(=O)[C@@H]2CCNC(=O)CC[C@H](NC(=O)[C@H](Cc3c[nH]c4ccccc34)NC(=O)[C@H](CCCNC(=N)N)NC(=O)[C@H](CCCNC(=N)N)NC(=O)[C@H]3CCCN3C(=O)CNC1=O)C(=O)N[C@@H](Cc1ccc(O)cc1)C(=O)N[C@@H](CCCNC(N)=O)C(=O)N[C@@H](CCCCN)C(=O)N1CCC[C@@H]1C(=O)N1CCC[C@H]1C(=O)N[C@@H](Cc1ccc(O)cc1)C(=O)N[C@@H](CCCNC(=N)N)C(=O)N[C@@H](CCCNC(N)=O)C(=O)N2 [Ex. 152] (cyclo(YR[Cit][Dab]RG[dP]RRWEY[Cit]K[dP]P); lactam 4-11),0,–,–,0.383,1.43,46,4.2
CC(C)[C@@H]1NC(=O)[C@H](Cc2ccc3ccccc3c2)NC(=O)[C@H](CCCNC(=N)N)NC(=O)[C@@H](CCCNC(=N)N)NC(=O)[C@H](CCCNC(=N)N)NC(=O)[C@H](C(C)C)NC(=O)[C@H](CCCNC(N)=O)NC(=O)[C@H](CCCNC(=N)N)NC(=O)[C@H](Cc2ccc(O)cc2)NC(=O)[C@@H]2CCCN2C(=O)[C@H]2CCCN2C(=O)[C@H](CCCCN)NC(=O)[C@H](CCCNC(N)=O)NC(=O)[C@H](Cc2ccc(O)cc2)NC1=O [compound 2] (cyclo(YR[Cit]VR[dR]R[2Nal]VY[Cit]K[dP]P)),0.9,97,2830,–,–,–,–
N=C(N)NCCC[C@@H]1NC(=O)[C@H](CCCNC(=N)N)NC(=O)[C@H](Cc2ccccc2)NC(=O)[C@H](CCCNC(N)=O)NC(=O)[C@H](CCCNC(=N)N)NC(=O)[C@H](Cc2ccc(O)cc2)NC(=O)[C@@H]2CCCN2C(=O)[C@H]2CCCN2C(=O)[C@H](CCCCN)NC(=O)[C@H](CCCNC(N)=O)NC(=O)[C@H](Cc2ccc(O)cc2)NC(=O)[C@H](Cc2ccccc2)NC(=O)[C@H](Cc2ccc3ccccc3c2)NC(=O)[C@H](CCCNC(=N)N)NC1=O [compound 3] (cyclo(YR[Cit]FRRR[2Nal]FY[Cit]K[dP]P)),1.7,126,1000,–,–,–,–
CC(C)[C@@H]1NC(=O)[C@H](CCCNC(N)=O)NC(=O)[C@H](CCCNC(=N)N)NC(=O)[C@H](Cc2ccc(O)cc2)NC(=O)[C@@H]2CCCN2C(=O)[C@H]2CCCN2C(=O)[C@H](CCCCN)NC(=O)[C@H](CCCNC(N)=O)NC(=O)[C@H](Cc2ccc(O)cc2)NC(=O)[C@H](Cc2ccccc2)NC(=O)[C@H](Cc2ccc3ccccc3c2)NC(=O)[C@H](CCCNC(=N)N)NC(=O)[C@H](CCCNC(=N)N)NC(=O)[C@H](CCCNC(=N)N)NC1=O [compound 4] (cyclo(YR[Cit]VRRR[2Nal]FY[Cit]K[dP]P)),0.7,191,2540,–,–,–,–
CC(C)[C@@H]1NC(=O)[C@H](Cc2ccc3ccccc3c2)NC(=O)[C@H](CCCNC(=N)N)NC(=O)[C@H](CCCNC(=N)N)NC(=O)[C@@H]2CCCN2C(=O)[C@H](CCCNC(N)=O)NC(=O)[C@H](CCCNC(=N)N)NC(=O)[C@H](Cc2ccccc2)NC(=O)[C@H](CCCNC(N)=O)NC(=O)[C@H](CCCNC(=N)N)NC(=O)[C@H](Cc2ccc(O)cc2)NC(=O)[C@@H]2CCCN2C(=O)[C@H]2CCCN2C(=O)[C@H](CCCCN)NC(=O)[C@H](CCCNC(N)=O)NC(=O)[C@H](Cc2ccc(O)cc2)NC1=O [compound 20] (cyclo(YR[Cit]FR[Cit]PRR[2Nal]VY[Cit]K[dP]P)),0.2,85,3730,–,–,–,–
CC(C)[C@@H]1NC(=O)[C@H](Cc2ccc3ccccc3c2)NC(=O)[C@H](CCCNC(=N)N)NC(=O)[C@H](CCCNC(=N)N)NC(=O)[C@H]2CCCN2C(=O)[C@H](C(C)C)NC(=O)[C@H](CCCNC(=N)N)NC(=O)[C@H](Cc2ccccc2)NC(=O)[C@H](CCCNC(N)=O)NC(=O)[C@H](CCCNC(=N)N)NC(=O)[C@H](Cc2ccc(O)cc2)NC(=O)[C@@H]2CCCN2C(=O)[C@H]2CCCN2C(=O)[C@H](CCCCN)NC(=O)[C@H](CCCNC(N)=O)NC(=O)[C@H](Cc2ccc(O)cc2)NC1=O [compound 21] (cyclo(YR[Cit]FRV[dP]RR[2Nal]VY[Cit]K[dP]P)),0.6,114,550,–,–,–,–
